Experimental data from patent publication US6436630B1, “Method for testing the toxicity of chemical substances using gastropods” (priority 1998, dated 2002).
Where two headings read alike, the source gives them in different places.

How the values were obtained:
[1] = tested on: foot mucosa of slugs of species Arion; type: in vivo; settings: Arion; for % MP, mucus production: 1% w/v (HPβCD 5% w/v) in PBS, 15 min; for ALP released into PBS / LDH released into PBS / Protein released into PBS: 1% w/v (HPβCD 5% w/v), total mean of 7 samples/day per slug
[2] = tested on: foot mucosa of slugs of species Limax; type: in vivo; settings: Limax; for % MP, mucus production as % of the body weight at the start of the day before the treatment: 1% w/v (HPβCD 5% w/v) in PBS, 15 min; for ALP released into PBS / LDH released into PBS / Protein released into PBS: 1% w/v (HPβCD 5% w/v), total mean of 7 samples/day per slug
Protocol: Slugs of the species Limax are terrestial slugs have lungs and also a small internal shell. As test substances hydroxypropyl-β-cyclodextrin (HPβCD), sodium tauro-24,25-dihdrofiisidate (STDHF) and sodium deoxycholate were selected. Benzalkonium chloride (1% w/v), HPβCD (5% w/v), STDHF (1% w/v) and SDC (1% w/v) were prepared in phosphate buffered saline (PBS, pH 7.4).
The enzymes lactate dehydrogenase (LDH) and alkaline phosphatase (ALP) and total protein released into the PBS were determined. The change in body weight and mucus production caused by the treatment were examined.

## CC(=O)OC1CC2(C)C(CC(O)C3C4(C)CCC(O)C(C)C4CCC32C)C1=C(CCCC(C)C)C(=O)NCCS(=O)(=O)O (stereo not drawn) [STDHF, sodium tauro-24,25-dihdrofiisidate]
[1]
  ranking order of increasing toxicity: PBS, 5% HPβCD<1% STDHF<1% SDC and 1% BAC
[1]; 1% w/v
  LDH release (in words): slightly increased LDH release
  body weight change (in words): decrease in body weight
[1]; HPβCD 5% w/v, STDHF 1% w/v
  mucus production (in words): increased mucus production
[1]; day 1
  % MP, mucus production: 7.7%
  ALP released into PBS: 21.77 U/L
  LDH released into PBS: 18.22 U/L
  Protein released into PBS: 15.68 μg/30μL
[1]; day 2
  % MP, mucus production: 3.85%
  ALP released into PBS: 9.39 U/L
  LDH released into PBS: 14.44 U/L
  Protein released into PBS: 2.84 μg/30μL
[1]; day 3
  % MP, mucus production: 3.45%
  ALP released into PBS: 8.66 U/L
  LDH released into PBS: 24.04 U/L
  Protein released into PBS: 2.79 μg/30μL
[1]; day 4
  % MP, mucus production: 4.81%
  ALP released into PBS: 15.14 U/L
  LDH released into PBS: 20.53 U/L
  Protein released into PBS: 4.55 μg/30μL
[1]; day 5
  % MP, mucus production: 4.41%
  ALP released into PBS: 4.81 U/L
  LDH released into PBS: 25.65 U/L
  Protein released into PBS: 4.18 μg/30μL
[2]
  ranking order of increasing toxicity: PBS, 5% HPβCD<1% STDHF<1% SDC and 1% BAC
[2]; 1% w/v
  LDH release (in words): slightly increased LDH release
  body weight change (in words): decrease in body weight
[2]; HPβCD 5% w/v, STDHF 1% w/v
  mucus production (in words): increased mucus production
[2]; day 1
  % MP, mucus production as % of the body weight at the start of the day before the treatment: 6.85%
  ALP released into PBS: 3.81 U/L
  LDH released into PBS: 1.65 U/L
  Protein released into PBS: 14.48 μg/30μL
[2]; day 2
  % MP, mucus production as % of the body weight at the start of the day before the treatment: 6.16%
  ALP released into PBS: 6.49 U/L
  LDH released into PBS: 4.29 U/L
  Protein released into PBS: 11.67 μg/30μL
[2]; day 3
  % MP, mucus production as % of the body weight at the start of the day before the treatment: 7.52%
  ALP released into PBS: 5.09 U/L
  LDH released into PBS: 6.02 U/L
  Protein released into PBS: 6.27 μg/30μL
[2]; day 4
  % MP, mucus production as % of the body weight at the start of the day before the treatment: 6.75%
  ALP released into PBS: 3.28 U/L
  LDH released into PBS: 18.23 U/L
  Protein released into PBS: 10.4 μg/30μL
[2]; day 5
  % MP, mucus production as % of the body weight at the start of the day before the treatment: 6.6%
  ALP released into PBS: 3.62 U/L
  LDH released into PBS: 10.63 U/L
  Protein released into PBS: 10.36 μg/30μL
